Results from patent publication US7772241B2, “Variolin derivatives and their use as antitumor agents” (Pharma Mar S.A., priority 2001, dated 2010).
Where two headings read alike, the source gives them in different places.

What was measured:
A-549 = test: Inhibition of cells growth by colorimetric (SRB) assay, A-549
In short: (§1)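 Human tumour cells in RPMI 1640 with 10% FBS were seeded at 5×10^3 cells/well, allowed to attach for 18 h, then exposed to samples at 10 to 10^−8 μg/ml for 48 h. Growth was measured by SRB staining after TCA fixation, with absorbance read at 490 nm in triplicate wells.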

LoVo = test: Inhibition of cells growth by colorimetric (SRB) assay, LoVo; settings: for GI50 / CC50: Homo sapiens, LoVo, 48 h; for GI50: read-out: GI50 LOVO, SRB assay, 48 hours exposure; for CC50: read-out: LC50 LOVO, SRB assay, 48 hours exposure; for TGI LOVO: SRB assay, 48 hours exposure
In short: as §1

HMEC1 = test: Inhibition of cells growth by colorimetric (SRB) assay, HMEC1; settings: for TGI H-MEC-1: in M (unit assumed)
[1] = as above; settings: human, HMEC1 cells, LC50 H-MEC-1, SRB assay, 48 hours exposure
LNCaP = test: Inhibition of cells growth by colorimetric (SRB) assay, LNCaP
In short: as §1

SK-BR-3 = test: Inhibition of cells growth by colorimetric (SRB) assay, SK-BR-3; settings: for GI50: read-out: GI50 SK-BR-3, SRB assay, 48 hours exposure
In short: as §1

LoVo-Dox = test: Inhibition of cells growth by colorimetric (SRB) assay, LoVo-Dox; settings: for GI50 / CC50: Homo sapiens, 48 h; for GI50: read-out: GI50 LOVO-DOX, SRB assay, 48 hours exposure; for CC50: read-out: LC50 LOVO-DOX, SRB assay, 48 hours exposure; for TGI LOVO-DOX: SRB assay, 48 hours exposure
In short: as §1

IGROV-ET = test: Inhibition of cells growth by colorimetric (SRB) assay, IGROV-ET; settings: for CC50: read-out: LC50 IGROV-ET, SRB assay, 48 hours exposure
In short: as §1

IGROV-1 = test: Inhibition of cells growth by colorimetric (SRB) assay, IGROV-1
In short: as §1

K-562 = test: Inhibition of cells growth by colorimetric (SRB) assay, K-562
In short: as §1

SK-OV-3 = test: Inhibition of cells growth by colorimetric (SRB) assay, SK-OV-3; settings: for CC50: read-out: LC50 SKOV-3, SRB assay, 48 hours exposure
In short: as §1

SK-MEL-28 = test: Inhibition of cells growth by colorimetric (SRB) assay, SK-MEL-28; settings: for GI50 / CC50: Homo sapiens, SK-MEL-28, 48 h; for GI50: read-out: GI50 MEL-28, SRB assay, 48 hours exposure; for CC50: read-out: LC50 MEL-28, SRB assay, 48 hours exposure; for TGI MEL-28: SRB assay, 48 hours exposure
In short: as §1

PANC-1 = test: Inhibition of cells growth by colorimetric (SRB) assay, PANC-1; settings: for GI50 / CC50: Homo sapiens, PANC-1, 48 h; for GI50: read-out: GI50 PANC-1, SRB assay, 48 hours exposure; for CC50: read-out: LC50 PANC-1, SRB assay, 48 hours exposure; for TGI PANC-1: SRB assay, 48 hours exposure
In short: as §1

HT-29 = test: Inhibition of cells growth by colorimetric (SRB) assay, HT-29; settings: for GI50 / CC50: Homo sapiens, HT-29, 48 h; for GI50: read-out: GI50 HT-29, SRB assay, 48 hours exposure; for CC50: read-out: LC50 HT-29, SRB assay, 48 hours exposure; for TGI HT-29: SRB assay, 48 hours exposure
In short: as §1

DU-145 = test: Inhibition of cells growth by colorimetric (SRB) assay, DU-145; settings: for GI50: read-out: GI50 DU-145, SRB assay, 48 hours exposure
In short: as §1

[2] = Homo sapiens, A549, 48 h, read-out: GI50 A-549, SRB assay, 48 hours exposure
[3] = Homo sapiens, A549, 48 h, read-out: LC50 A-549, SRB assay, 48 hours exposure
[4] = Homo sapiens, HMEC-1, 48 h, read-out: GI50 H-MEC-1, SRB assay, 48 hours exposure
[5] = Homo sapiens, SK-BR-3, 48 h, read-out: LC50 SK-BR-3, SRB assay, 48 hours exposure
[6] = Homo sapiens, IGROV-1, 48 h, read-out: GI50 IGROV, SRB assay, 48 hours exposure
[7] = Homo sapiens, IGROV-1, 48 h, read-out: LC50 IGROV, SRB assay, 48 hours exposure
[8] = read-out: GI50 LN-caP, SRB assay, 48 hours exposure
[9] = read-out: LC50 LN-caP, SRB assay, 48 hours exposure
[10] = read-out: GI50 IGROV-ET, SRB assay, 48 hours exposure
[11] = read-out: GI50 K-562, SRB assay, 48 hours exposure
[12] = read-out: LC50 K-562, SRB assay, 48 hours exposure
[13] = read-out: GI50 SKOV-3, SRB assay, 48 hours exposure
[14] = read-out: LC50 DU-145, SRB assay, 48 hours exposure

## Nc1nccc2c(-c3cccs3)c3cccnc3n12 [Compound 65]
A-549; [2]
  GI50: 26400 nM
A-549; [3]
  CC50: ≥ 37500 nM
A-549; SRB assay, 48 hours exposure
  TGI A-549: 3.75E−05
LoVo
  GI50: ≥ 37500 nM
  CC50: ≥ 37500 nM
  TGI LOVO: 3.75E−05
HMEC1; [4]
  GI50: 11800 nM
HMEC1; SRB assay, 48 hours exposure
  TGI H-MEC-1: 3.75E−05
[1]
  CC50 at 48 h: ≥ 37500 nM
LNCaP; Homo sapiens, LNCaP, 48 h, read-out: GI50 LN-caP, SRB assay, 48 hours exposure
  GI50: 17100 nM
LNCaP; Homo sapiens, LNCaP, 48 h, read-out: LC50 LN-caP, SRB assay, 48 hours exposure
  CC50: ≥ 37500 nM
LNCaP; SRB assay, 48 hours exposure
  TGI LN-caP: 3.75E−05
SK-BR-3; Homo sapiens, SK-BR-3, 48 h
  GI50: 1460 nM
SK-BR-3; [5]
  CC50: ≥ 37500 nM
SK-BR-3; SRB assay, 48 hours exposure
  TGI SK-BR-3: 3.75E−05
LoVo-Dox
  GI50: ≥ 37500 nM
  CC50: ≥ 37500 nM
  TGI LOVO-DOX: 3.75E−05
IGROV-ET; Homo sapiens, 48 h, read-out: GI50 IGROV-ET, SRB assay, 48 hours exposure
  GI50: ≥ 37500 nM
IGROV-ET; Homo sapiens, 48 h
  CC50: ≥ 37500 nM
IGROV-ET; SRB assay, 48 hours exposure
  TGI IGROV-ET: 3.75E−05
IGROV-1; [6]
  GI50: ≥ 37500 nM
IGROV-1; [7]
  CC50: ≥ 37500 nM
IGROV-1; SRB assay, 48 hours exposure
  TGI IGROV: 3.75E−05
K-562; Homo sapiens, K562, 48 h, read-out: GI50 K-562, SRB assay, 48 hours exposure
  GI50: ≥ 37500 nM
K-562; Homo sapiens, K562, 48 h, read-out: LC50 K-562, SRB assay, 48 hours exposure
  CC50: ≥ 37500 nM
K-562; SRB assay, 48 hours exposure
  TGI K-562: 3.75E−05
SK-OV-3; Homo sapiens, SK-OV-3, 48 h, read-out: GI50 SKOV-3, SRB assay, 48 hours exposure
  GI50: ≥ 37500 nM
SK-OV-3; Homo sapiens, SK-OV-3, 48 h
  CC50: ≥ 37500 nM
SK-OV-3; SRB assay, 48 hours exposure
  TGI SKOV-3: 3.75E−05
SK-MEL-28
  GI50: ≥ 37500 nM
  CC50: ≥ 37500 nM
  TGI MEL-28: 3.75E−05
PANC-1
  GI50: ≥ 37500 nM
  CC50: ≥ 37500 nM
  TGI PANC-1: 3.75E−05
HT-29
  GI50: ≥ 37500 nM
  CC50: ≥ 37500 nM
  TGI HT-29: 3.75E−05
DU-145; Homo sapiens, DU-145, 48 h
  GI50: ≥ 37500 nM
DU-145; Homo sapiens, DU-145, 48 h, read-out: LC50 DU-145, SRB assay, 48 hours exposure
  CC50: ≥ 37500 nM
DU-145; SRB assay, 48 hours exposure
  TGI DU-145: 3.75E−05

## COc1nccc(-c2c3cccnc3n3c(N)nccc23)n1.Cl [Compound 81]
A-549; SRB assay, 48 hours exposure
  TGI A-549: 3.04E−05
A-549; read-out: GI50 A-549, SRB assay, 48 hours exposure
  GI50: ≥ 30400 nM
A-549; read-out: LC50 A-549, SRB assay, 48 hours exposure
  CC50: ≥ 30400 nM
LoVo
  GI50: 224 nM
  CC50: ≥ 30400 nM
  TGI LOVO: 1.77E−06
HMEC1; SRB assay, 48 hours exposure
  TGI H-MEC-1: 2.62E−07
HMEC1; read-out: GI50 H-MEC-1, SRB assay, 48 hours exposure
  GI50: 171 nM
[1]
  CC50 at 48 h: 858 nM
LNCaP; SRB assay, 48 hours exposure
  TGI LN-caP: 2.61E−07
LNCaP; [8]
  GI50: 158 nM
LNCaP; [9]
  CC50: 2770 nM
SK-BR-3; Homo sapiens, SK-BR-3, 48 h
  GI50: 855 nM
SK-BR-3; SRB assay, 48 hours exposure
  TGI SK-BR-3: 2.26E−06
SK-BR-3; read-out: LC50 SK-BR-3, SRB assay, 48 hours exposure
  CC50: 9490 nM
LoVo-Dox
  GI50: 706 nM
  CC50: ≥ 30400 nM
  TGI LOVO-DOX: 3.04E−06
IGROV-ET; Homo sapiens, 48 h
  CC50: ≥ 30400 nM
IGROV-ET; SRB assay, 48 hours exposure
  TGI IGROV-ET: 2.28E−07
IGROV-ET; [10]
  GI50: 85.5 nM
IGROV-1; SRB assay, 48 hours exposure
  TGI IGROV: 2.70E−06
IGROV-1; read-out: GI50 IGROV, SRB assay, 48 hours exposure
  GI50: 210 nM
IGROV-1; read-out: LC50 IGROV, SRB assay, 48 hours exposure
  CC50: 20500 nM
K-562; SRB assay, 48 hours exposure
  TGI K-562: 3.29E−07
K-562; [11]
  GI50: 79.1 nM
K-562; [12]
  CC50: 523 nM
SK-OV-3; Homo sapiens, SK-OV-3, 48 h
  CC50: 34500 nM
SK-OV-3; SRB assay, 48 hours exposure
  TGI SKOV-3: 8.52E−06
SK-OV-3; [13]
  GI50: 797 nM
SK-MEL-28
  GI50: 313 nM
  CC50: 1740 nM
  TGI MEL-28: 7.36E−07
PANC-1
  GI50: 1000 nM
  CC50: ≥ 30400 nM
  TGI PANC-1: 2.86E−06
HT-29
  GI50: 1300 nM
  CC50: ≥ 30400 nM
  TGI HT-29: 3.04E−05
DU-145; Homo sapiens, DU-145, 48 h
  GI50: 928 nM
DU-145; SRB assay, 48 hours exposure
  TGI DU-145: 2.40E−06
DU-145; [14]
  CC50: > 30400 nM

## CCOc1nccc(-c2c3cccnc3n3c(N)nccc23)n1.Cl [Compound 82]
A-549; [2]
  GI50: 29200 nM
A-549; [3]
  CC50: 29200 nM
A-549; SRB assay, 48 hours exposure
  TGI A-549: 2.92E−05
LoVo
  GI50: 665 nM
  CC50: 29200 nM
  TGI LOVO: 2.15E−06
HMEC1; [4]
  GI50: 341 nM
HMEC1; SRB assay, 48 hours exposure
  TGI H-MEC-1: 7.29E−07
[1]
  CC50 at 48 h: 1550 nM
LNCaP; SRB assay, 48 hours exposure
  TGI LN-caP: 1.57E−06
LNCaP; [8]
  GI50: 887 nM
LNCaP; [9]
  CC50: 2280 nM
SK-BR-3; Homo sapiens, SK-BR-3, 48 h
  GI50: 560 nM
SK-BR-3; [5]
  CC50: 2260 nM
SK-BR-3; SRB assay, 48 hours exposure
  TGI SK-BR-3: 1.12E−06
LoVo-Dox
  GI50: 700 nM
  CC50: 12100 nM
  TGI LOVO-DOX: 2.72E−06
IGROV-ET; Homo sapiens, 48 h
  CC50: 29200 nM
IGROV-ET; SRB assay, 48 hours exposure
  TGI IGROV-ET: 2.32E−07
IGROV-ET; [10]
  GI50: 89 nM
IGROV-1; [6]
  GI50: 971 nM
IGROV-1; [7]
  CC50: 29200 nM
IGROV-1; SRB assay, 48 hours exposure
  TGI IGROV: 1.76E−06
K-562; SRB assay, 48 hours exposure
  TGI K-562: 7.32E−07
K-562; [11]
  GI50: 531 nM
K-562; [12]
  CC50: 1010 nM
SK-OV-3; SRB assay, 48 hours exposure
  TGI SKOV-3: 2.91E−06
SK-OV-3; [13]
  GI50: 992 nM
SK-MEL-28
  GI50: 365 nM
  CC50: 1730 nM
  TGI MEL-28: 7.93E−07
PANC-1
  GI50: 1030 nM
  CC50: 29200 nM
  TGI PANC-1: 6.77E−06
HT-29
  GI50: 712 nM
  TGI HT-29: 2.92E−06
DU-145; Homo sapiens, DU-145, 48 h
  GI50: 715 nM
DU-145; SRB assay, 48 hours exposure
  TGI DU-145: 1.51E−06
DU-145; [14]
  CC50: 2920 nM
